Legend:
[1] = system: MDR1-MDCKII cells; assay: MDR1-MDCKII permeability assay Papp(AB); assay type: in vitro ADME; details: parent compounds; 0.5 μM; A to B; 60-minute incubation at 37° C.; pH 7.4
Procedure: (§1) MDR1-MDCKII Permeability Assay Papp(AB)
(§2) MDR1-MDCKII cells (obtained from Piet Borst at the Netherlands Cancer Institute) were seeded onto […] (PET) in 96-well BD insert systems at 2.5×10^5 cells/mL until to 4-7 days for confluent cell monolayer formation.
(§3) Test compounds were diluted with the transport buffer (HBSS with 10 mM HEPES, added 1% BSA, pH 7.4) from DMSO stock solution to a concentration of 0.5 μM (DMSO: 0.4%) and applied to the apical or basolateral side of the cell monolayer. Permeation of the test compounds from A to B direction or B to A direction was determined in triplicate over a 60-minute incubation at 37° C. and 5% CO2 with a relative humidity of 95%. In addition, the efflux ratio of each compound was also determined. Test and reference compounds were quantified by LC/MS/MS analysis based on the peak area ratio of analyte/IS.
(§4) Reference compounds: Fenoterol (conc: 2 μM) was used as low permeability marker and Propranolol (conc: 2 μM) was used as high permeability marker in A to B Permeability, furthermore was bi-directional permeability of a P-glycoprotein substrate (digoxin) included.
(§5) The apparent permeability coefficient Papp (cm/s) was calculated using the equation: Papp=(dCr/dt)×Vr/(A×C0) (1) Where dCr/dt is the cumulative concentration of compound in the receiver chamber as a function of time (μM/s); Vr is the solution volume in the receiver chamber (0.05 mL on the apical side; 0.25 mL on the basolateral side); A is the surface area for the transport, i.e. 0.0804 cm^2 for the area of the monolayer; C0 is the initial concentration in the donor chamber (μM).
(§6) The efflux was calculated using the equation: Efflux ratio=Papp(BA)/Papp(AB) (2)
(§7) The mass balance (Recovery) was calculated. The mass balance is defined as: the sum of the compound recovered from the acceptor chamber and the compound remaining in the donor chamber at the end of the experiment, divided by the initial donor amount. The mass balance should be as high as possible. Criterion: Recovery <50% is insufficient.
(§8) To evaluate the integrity of the cell monolayer, Lucifer Yellow permeability was measured in one direction (A to B). The percentage of Lucifer Yellow was calculated in control wells as an estimation of the overall cell membrane integrity. The wells are considered fully acceptable if % Lucifer Yellow is less than 2%.
(§9) The experiments for the prodrugs were the same as for the parent compounds exemplified in Table 3a.

[2] = MDR1-MDCKII permeability assay Papp(AB); assay type: in vitro ADME; details: dog, A to B, 60-minute incubation at 37° C., pH 7.4
Procedure: as §1, §2, §3, §4, §5, §6, §7, §8, §9

[3] = In vivo exposure (plasma and brain) after intravenous bolus injection; details: dose 2 mg/kg intravenous bolus, male Sprague Dawley rats
Procedure: Brain disposition of test compound was evaluated in male Sprague Dawley rats (standard body weight range). Briefly, discrete (nominal dose: 2 mg/kg, 2 ml/kg) or cassetted (nominal dose: 1 mg/kg/compound, 2 ml/kg) test compounds were administered by intravenous bolus injection (formulated in 10% hydroxypropyl-β-cyclodextrin or 10-20% Captisol, pH=3).
Serial blood samples were collected from a lateral tail vein at designated time points (n=3 per time point) then rats were put under deep isofluorane induced anaesthesia prior to removal of brains (n=3 per time point). Blood samples were stabilized against further metabolism ex vivo by addition of an esterase inhibitor (100 μM diisopropyl fluorophosphate). […]
Seven calibration standards and three QC samples were prepared in plasma and brain homogenate, respectively, in the concentration range 10-10000 ng/mL. […] Study samples with expected concentration above upper limit of quantification were diluted with blank matrix. […]
Samples were analyzed using an AB Sciex API4000 triple quadrupole (TQ) mass spectrometer operated in positive and negative electrospray ionization and MS/MS mode (multiple reaction monitoring, MRM). […] Quantification was performed by linear regression, 1/x2 weighting.
Concentrations of prodrug and drug in plasma and brain were quantified against matrix matched calibration standards.

| Papp A→B at 60 min, 0.5 µM ([2]; MDCK-MDR1, prodrug compounds) [×10⁻⁶ cm/s] | SMILES | further results |
| --- | --- | --- |
| 8.36 | COC(=O)[C@H](N)CNC(=O)c1cc2nccc(C(F)F)c2s1 [Compound 2a, Methyl (R)-2-amino-3-(7-(difluoromethyl)thieno[3,2-b]pyridine-2-carboxamido)propanoate] | – |
| 9.25 | COC(=O)[C@H](N)CNC(=O)c1cc2nccc(C3CC3)c2s1 [Compound 2b, Methyl (R)-2-amino-3-(7-cyclopropylthieno[3,2-b]pyridine-2-carboxamido) propanoate] | – |
| 7.11 | Cc1ccnc2cc(C(=O)NC[C@@H](N)C(=O)OC3CC3)sc12 [Compound 2g, Cyclopropyl (R)-2-amino-3-(7-methylthieno[3,2-b]pyridine-2-carboxamido)propanoate] | – |
| 11.9 | Cc1ccnc2cc(C(=O)NC[C@@H](N)C(=O)OCC3CC3)sc12 [Compound 2j, Cyclopropylmethyl (R)-2-amino-3-(7-methylthieno[3,2-b]pyridine-2-carboxamido)propanoate] | – |
| 6.5 | Cc1ccnc2cc(C(=O)NC[C@@H](N)C(=O)OCCC(C)C)sc12 [Compound 2l, Isopentyl (R)-2-amino-3-(7-methylthieno[3,2-b]pyridine-2-carboxamido)propanoate] | – |
| 8.68 | Cc1ccnc2cc(C(=O)NC[C@@H](N)C(=O)OCc3ccccc3)sc12 [Compound 2m, Benzyl (R)-2-amino-3-(7-methylthieno[3,2-b]pyridine-2-carboxamido)propanoate] | – |
| 0.81 | Cc1ccnc2cc(C(=O)NC[C@@H](N)C(=O)OCC(=O)N3CCCC3)sc12 [Compound 2p, 2-Oxo-2-(pyrrolidin-1-yl)ethyl (R)-2-amino-3-(7-methylthieno[3,2-b]pyridine-2-carboxamido)propanoate] | – |
| 4.19 | COC(=O)[C@H](N)CNC(=O)c1cc2nccc(CF)c2s1 [Compound 2w, Methyl (R)-2-amino-3-(7-(fluoromethyl)thieno[3,2-b]pyridine-2-carboxamido)propanoate] | – |

Further lines, the molecule ahead of its results:

| SMILES | Papp A→B at 60 min, 0.5 µM ([2]; MDCK-MDR1, prodrug compounds) [×10⁻⁶ cm/s] | further results |
| --- | --- | --- |
| N[C@H](CNC(=O)c1cc2nccc(C(F)F)c2s1)C(=O)O [Compound 1a, (R)-2-amino-3-(7-(difluoromethyl)thieno[3,2-b]pyridine-2-carboxamido)propanoic acid] | – | Permeability Papp (AB) [1]: BLOQ |
| N[C@H](CNC(=O)c1cc2nccc(C3CC3)c2s1)C(=O)O [Compound 1b, (R)-2-amino-3-(7-cyclopropylthieno[3,2-b]pyridine-2-carboxamido) propanoic acid] | – | Permeability Papp (AB) [1]: BLOQ |
| Cc1ccnc2cc(C(=O)NC[C@@H](N)C(=O)O)sc12 [Compound 1c, (R)-2-amino-3-(7-methylthieno[3,2-b]pyridine-2-carboxamido)propanoic acid] | – | Permeability Papp (AB) [1]: BLOQ |
| CCc1ccccc1-c1ccnc2cc(C(=O)NC[C@@H](N)C(=O)O)sc12 [Compound 1d, (R)-2-amino-3-(7-(2-ethylphenyl)thieno[3,2-b]pyridine-2-carboxamido)propanoic acid] | – | Permeability Papp (AB) [1]: BLOQ |
| COc1ccnc2cc(C(=O)NC[C@@H](N)C(=O)O)sc12 [Compound 1e, (R)-2-amino-3-(7-methoxythieno[3,2-b]pyridine-2-carboxamido)propanoic acid] | – | Permeability Papp (AB) [1]: BLOQ |
| N[C@H](CNC(=O)c1cc2nccc(C(F)(F)F)c2s1)C(=O)O [Compound 1f, (R)-2-amino-3-(7-(trifluoromethyl)thieno[3,2-b]pyridine-2-carboxamido) propanoic acid] | – | Papp A→B at 60 min, 0.5 µM ([2]; MDCK-MDR1, parent compounds): 1.03 ×10⁻⁶ cm/s |
| CC(C)Oc1ccnc2cc(C(=O)NC[C@@H](N)C(=O)O)sc12 [Compound 1g, (R)-2-amino-3-(7-isopropoxythieno[3,2-b]pyridine-2-carboxamido)propanoic acid] | – | Permeability Papp (AB) [1]: BLOQ |
| Cc1cnc2cc(C(=O)NC[C@@H](N)C(=O)O)sc2c1C [Compound 1l, (R)-2-amino-3-(6,7-dimethylthieno[3,2-b]pyridine-2-carboxamido)propanoic acid] | – | Papp A→B at 60 min, 0.5 µM ([2]; MDCK-MDR1, parent compounds): 0.47 ×10⁻⁶ cm/s |
| CCOC(=O)[C@H](N)CNC(=O)c1cc2nccc(C)c2s1 [Compound 2d, Ethyl (R)-2-amino-3-(7-methylthieno[3,2-b]pyridine-2-carboxamido)propanoate] | 15.2 | – |
| CCCOC(=O)[C@H](N)CNC(=O)c1cc2nccc(C)c2s1 [Compound 2e, Propyl (R)-2-amino-3-(7-methylthieno[3,2-b]pyridine-2-carboxamido)propanoate] | 10.3 | – |
| Cc1ccnc2cc(C(=O)NC[C@@H](N)C(=O)OC(C)C)sc12 [Compound 2f, Isopropyl (R)-2-amino-3-(7-methylthieno[3,2-b]pyridine-2-carboxamido)propanoate] | 18.4 | Total Brain concentration (ng/mL) 30 min post dose ([3]; compound quantified 1c): BLOQ |
| CCCCOC(=O)[C@H](N)CNC(=O)c1cc2nccc(C)c2s1 [Compound 2h, Butyl (R)-2-amino-3-(7-methylthieno[3,2-b]pyridine-2-carboxamido)propanoate] | 6.11 | – |
| Cc1ccnc2cc(C(=O)NC[C@@H](N)C(=O)OCC(C)C)sc12 [Compound 2i, Isobutyl (R)-2-amino-3-(7-methylthieno[3,2-b]pyridine-2-carboxamido)propanoate] | 8.19 | – |
| COCCOC(=O)[C@H](N)CNC(=O)c1cc2nccc(C)c2s1 [Compound 2k, 2-Methoxyethyl (R)-2-amino-3-(7-methylthieno[3,2-b]pyridine-2-carboxamido)propanoate] | 4.77 | – |
| Cc1ccnc2cc(C(=O)NC[C@@H](N)C(=O)OC3CCCCC3)sc12 [Compound 2n, Cyclohexyl (R)-2-amino-3-(7-methylthieno[3,2-b]pyridine-2-carboxamido)propanoate] | 5.86 | – |
| CCc1ccccc1-c1ccnc2cc(C(=O)NC[C@@H](N)C(=O)OC)sc12 [Compound 2q, Methyl (R)-2-amino-3-(7-(2-ethylphenyl)thieno[3,2-b]pyridine-2-carboxamido)propanoate] | 1.97 | – |
| COC(=O)[C@H](N)CNC(=O)c1cc2nccc(OC)c2s1 [Compound 2r, Methyl (R)-2-amino-3-(7-methoxythieno[3,2-b]pyridine-2-carboxamido)propanoate] | 5.54 | – |
| COC(=O)[C@H](N)CNC(=O)c1cc2nccc(C(F)(F)F)c2s1 [Compound 2s, Methyl (R)-2-amino-3-(7-(trifluoromethyl)thieno[3,2-b]pyridine-2-carboxamido)propanoate] | 12.3 | – |
| COC(=O)[C@H](N)CNC(=O)c1cc2nccc(OC(C)C)c2s1 [Compound 2t, Methyl (R)-2-amino-3-(7-isopropoxythieno[3,2-b]pyridine-2-carboxamido)propanoate] | 4.81 | – |
| COC(=O)[C@H](N)CNC(=O)c1cc2nccc(Br)c2s1 [Compound 2u, Methyl (R)-2-amino-3-(7-bromothieno[3,2-b]pyridine-2-carboxamido)propanoate] | – | Total Brain concentration (ng/mL) 30 min post dose ([3]; compound quantified 1h): BLOQ |
| COC(=O)[C@H](N)CNC(=O)c1cc2nccc(CO)c2s1 [Compound 2v, Methyl (R)-2-amino-3-(7-(hydroxymethyl)thieno[3,2-b]pyridine-2-carboxamido) propanoate] | 1.16 | – |
| COC(=O)[C@H](N)CNC(=O)c1cc2ncc(F)c(C)c2s1 [Compound 2x, Methyl (R)-2-amino-3-(6-fluoro-7-methyl-thieno[3,2-b]pyridine-2-carboxamido)propanoate] | 15.5 | – |
| COC(=O)[C@H](N)CNC(=O)c1cc2ncc(C)c(C)c2s1 [Compound 2y, Methyl (R)-2-amino-3-(6,7-dimethylthieno[3,2-b]pyridine-2-carboxamido)propanoate] | 7.08 | – |
